Test results from ChEMBL document CHEMBL1201862, “PubChem BioAssay data set” (2004).
Calls of active or inactive are those of the source.

What was measured:
[1] = molecular target: T1, Tyrosine-protein phosphatase non-receptor type 7 (Homo sapiens, UniProt P35236); format: functional
T1 sequence (P35236 whole entry): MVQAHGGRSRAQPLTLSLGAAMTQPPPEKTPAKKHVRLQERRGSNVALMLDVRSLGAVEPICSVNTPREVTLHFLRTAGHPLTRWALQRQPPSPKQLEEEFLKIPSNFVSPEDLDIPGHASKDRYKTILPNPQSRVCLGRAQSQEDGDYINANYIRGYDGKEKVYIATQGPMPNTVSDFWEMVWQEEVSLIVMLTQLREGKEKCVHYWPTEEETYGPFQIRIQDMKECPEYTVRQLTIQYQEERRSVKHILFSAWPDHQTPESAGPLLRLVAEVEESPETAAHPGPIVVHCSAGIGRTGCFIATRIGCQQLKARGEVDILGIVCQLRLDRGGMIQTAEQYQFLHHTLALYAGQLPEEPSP

[2] = molecular target: T2, Tyrosine-protein phosphatase non-receptor type 22 (Homo sapiens, UniProt Q9Y2R2); format: functional
T2 sequence (Q9Y2R2 whole entry): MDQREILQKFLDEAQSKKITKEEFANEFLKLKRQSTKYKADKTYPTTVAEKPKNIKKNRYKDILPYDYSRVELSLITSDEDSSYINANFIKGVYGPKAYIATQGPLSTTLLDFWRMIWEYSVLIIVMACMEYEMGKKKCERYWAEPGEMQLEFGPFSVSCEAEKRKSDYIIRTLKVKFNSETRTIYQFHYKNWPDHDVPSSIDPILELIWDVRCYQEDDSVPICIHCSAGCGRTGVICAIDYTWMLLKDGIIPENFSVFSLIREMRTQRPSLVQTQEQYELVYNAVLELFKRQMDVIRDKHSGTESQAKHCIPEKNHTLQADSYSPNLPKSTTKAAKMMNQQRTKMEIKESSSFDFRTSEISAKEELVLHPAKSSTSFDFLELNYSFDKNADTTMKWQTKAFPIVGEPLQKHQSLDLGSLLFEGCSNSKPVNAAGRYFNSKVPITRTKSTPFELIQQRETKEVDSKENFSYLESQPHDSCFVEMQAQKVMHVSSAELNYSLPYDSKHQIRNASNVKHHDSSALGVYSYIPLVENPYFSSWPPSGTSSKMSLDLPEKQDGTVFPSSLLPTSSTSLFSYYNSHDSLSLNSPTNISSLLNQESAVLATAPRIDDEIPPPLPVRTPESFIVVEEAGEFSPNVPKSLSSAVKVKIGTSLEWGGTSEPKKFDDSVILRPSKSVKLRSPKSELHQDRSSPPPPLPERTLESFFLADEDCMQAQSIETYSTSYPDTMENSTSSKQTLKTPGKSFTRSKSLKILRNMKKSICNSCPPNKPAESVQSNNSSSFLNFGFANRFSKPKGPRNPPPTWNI

[3] = molecular target: T2, Tyrosine-protein phosphatase non-receptor type 22; format: functional; remark: listed apart in the source
[4] = molecular target: Eukaryotic translation initiation factor 4E (Mus musculus, UniProt P63073); experiment: eIF4E–eIF4G protein interaction inhibitors, dose response, biochemical, TR-FRET (AID 855); format: functional;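 further: potency for disrupting eIF4E binding to eIF4GI seen as loss of FRET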
Cytochrome P450 3A4 = Cytochrome P450 3A4 (Homo sapiens, UniProt P08684); details: Potency;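 further: confirmatory qHTS run detecting inhibitors and substrates of CYP3A4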
[5] = cytotoxicity in HEK-293T cells, dose response, cytotoxicity control for BCR NF-kB inhibitor project, luminescence, B-cell screen hits (AID 489021); format: functional, cell-based;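 further: HEK-293T cells carrying an NF-kB luciferase reporter; cells exposed to compound for about 14 hours before viability readout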
[6] = molecular target: T3, Short transient receptor potential channel 4 (Mus musculus, UniProt Q9QUQ5); experiment: mouse TRPC4 channel inhibitors, dose response, cell-based, HEK293 TRPC4/mu-opioid, Fluo-4 calcium (AID 434942); format: functional;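 further: potency of inhibitors blocking the TRPC4 calcium response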
T3 sequence (Q9QUQ5 whole entry): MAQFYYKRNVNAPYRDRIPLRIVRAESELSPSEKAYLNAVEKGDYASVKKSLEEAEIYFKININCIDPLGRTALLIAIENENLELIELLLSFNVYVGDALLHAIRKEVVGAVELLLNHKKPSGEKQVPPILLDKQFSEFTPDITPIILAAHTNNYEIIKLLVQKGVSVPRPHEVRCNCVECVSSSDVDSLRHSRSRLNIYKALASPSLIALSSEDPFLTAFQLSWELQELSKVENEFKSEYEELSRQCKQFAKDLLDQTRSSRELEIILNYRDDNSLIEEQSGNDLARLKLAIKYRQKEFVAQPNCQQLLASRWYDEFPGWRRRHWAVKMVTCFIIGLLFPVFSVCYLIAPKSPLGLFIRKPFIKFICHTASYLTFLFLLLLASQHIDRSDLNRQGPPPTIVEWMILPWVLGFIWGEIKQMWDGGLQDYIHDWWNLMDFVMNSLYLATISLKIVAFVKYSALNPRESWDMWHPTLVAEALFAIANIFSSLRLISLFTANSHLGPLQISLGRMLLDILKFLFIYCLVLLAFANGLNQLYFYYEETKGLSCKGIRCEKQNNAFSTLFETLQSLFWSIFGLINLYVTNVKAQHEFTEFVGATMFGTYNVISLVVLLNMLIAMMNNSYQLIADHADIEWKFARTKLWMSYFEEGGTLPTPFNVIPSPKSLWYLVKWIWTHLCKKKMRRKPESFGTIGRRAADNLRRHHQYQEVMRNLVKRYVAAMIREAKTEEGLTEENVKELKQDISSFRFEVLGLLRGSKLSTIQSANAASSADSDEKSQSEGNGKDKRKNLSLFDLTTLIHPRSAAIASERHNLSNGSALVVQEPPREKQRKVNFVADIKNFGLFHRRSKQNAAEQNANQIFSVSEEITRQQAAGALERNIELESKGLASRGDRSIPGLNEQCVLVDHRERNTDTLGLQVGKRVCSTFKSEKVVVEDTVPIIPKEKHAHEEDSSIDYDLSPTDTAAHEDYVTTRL

[7] = molecular target: Voltage-dependent T-type calcium channel subunit alpha-1H (Homo sapiens, UniProt O95180); format: functional;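 further: channel activity triggered by adding a high calcium stimulation buffer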
[8] = Vero E6 cell cytotoxicity, dose response, cytotoxicity control for non-replicating M. tuberculosis project, secondary assay (AID 492998); format: functional, VeroE6; details: Vero C1008
[9] = cytotoxicity toward NIH3T3 fibroblasts, dose response, counter-screen, cell-based, ATP luminescence, mouse fibroblasts (AID 2010); format: functional;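 further: cells exposed to compound for about 90 hours before reading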
[10] = MC4R antagonists, dose response, counter-screen for LGR2 antagonist project, cell-based, plate reader, cherry pick (AID 743444); format: functional;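 further: transfected HEK 293 cells stimulated with alpha-MSH peptide; potency of inhibitors of the alpha-MSH evoked signal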
[11] = HepG2 cell cytotoxicity, dose response, cytotoxicity control for non-replicating M. tuberculosis project (AID 489018); format: functional; details: Mycobacterium tuberculosis
[12] = inhibitors of intracellular T. cruzi replication, confirmation, NIH3T3 host cells, beta-gal luminescence (AID 2044); format: functional, cell-based;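 further: intracellular parasites grown in NIH/3T3 mouse fibroblasts as host cells; luminescent beta-galactosidase reporter signal from transgenic T. cruzi replicating inside host cells; inhibitors lower the luminescence signal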
[13] = A549 cell cytotoxicity, dose response, cytotoxicity control, plate reader, cherry-pick, antagonist series (AID 743412); format: functional, cell-based
[14] = HepG2 cell cytotoxicity, dose response, cytotoxicity control, plate reader, cherry-pick, antagonist series (AID 743416); format: functional, cell-based
cells = format: functional
[15] = HEK293 cell cytotoxicity, dose response, cytotoxicity control, plate reader, cherry-picked samples (AID 743446); format: functional, cell-based
[16] = LGR2 antagonists, dose response, cell-based, HEK293, CRE-luciferase reporter, cherry pick, set 2 (AID 743343); format: functional;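 further: transfected cells were stimulated with diluted bursicon conditioned medium after compound addition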
[17] = THP-1 cell cytotoxicity, dose response, cytotoxicity control for non-replicating M. tuberculosis project (AID 489025); format: functional

Sequence of Eukaryotic translation initiation factor 4E (P63073 whole entry): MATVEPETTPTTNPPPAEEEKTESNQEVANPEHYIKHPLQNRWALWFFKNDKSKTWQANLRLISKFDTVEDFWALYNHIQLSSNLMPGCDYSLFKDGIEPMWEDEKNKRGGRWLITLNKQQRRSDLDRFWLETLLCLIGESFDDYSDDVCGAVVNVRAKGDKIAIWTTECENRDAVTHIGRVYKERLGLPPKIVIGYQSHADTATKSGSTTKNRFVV
Sequence of Cytochrome P450 3A4 (P08684 whole entry): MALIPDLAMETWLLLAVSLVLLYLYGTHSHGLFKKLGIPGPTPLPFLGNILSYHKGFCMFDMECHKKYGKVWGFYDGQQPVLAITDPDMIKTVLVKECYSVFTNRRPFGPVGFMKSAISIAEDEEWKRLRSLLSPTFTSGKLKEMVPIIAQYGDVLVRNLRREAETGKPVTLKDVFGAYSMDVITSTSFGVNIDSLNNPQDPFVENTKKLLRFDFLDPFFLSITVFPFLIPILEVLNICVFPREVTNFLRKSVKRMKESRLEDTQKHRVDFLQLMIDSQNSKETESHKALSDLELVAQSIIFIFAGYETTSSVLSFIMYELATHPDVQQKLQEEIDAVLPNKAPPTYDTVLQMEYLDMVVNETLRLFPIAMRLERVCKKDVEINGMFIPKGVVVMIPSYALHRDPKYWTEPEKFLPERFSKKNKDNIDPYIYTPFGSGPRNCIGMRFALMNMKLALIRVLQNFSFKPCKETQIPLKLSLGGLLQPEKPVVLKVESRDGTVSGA
Sequence of Voltage-dependent T-type calcium channel subunit alpha-1H (O95180 whole entry): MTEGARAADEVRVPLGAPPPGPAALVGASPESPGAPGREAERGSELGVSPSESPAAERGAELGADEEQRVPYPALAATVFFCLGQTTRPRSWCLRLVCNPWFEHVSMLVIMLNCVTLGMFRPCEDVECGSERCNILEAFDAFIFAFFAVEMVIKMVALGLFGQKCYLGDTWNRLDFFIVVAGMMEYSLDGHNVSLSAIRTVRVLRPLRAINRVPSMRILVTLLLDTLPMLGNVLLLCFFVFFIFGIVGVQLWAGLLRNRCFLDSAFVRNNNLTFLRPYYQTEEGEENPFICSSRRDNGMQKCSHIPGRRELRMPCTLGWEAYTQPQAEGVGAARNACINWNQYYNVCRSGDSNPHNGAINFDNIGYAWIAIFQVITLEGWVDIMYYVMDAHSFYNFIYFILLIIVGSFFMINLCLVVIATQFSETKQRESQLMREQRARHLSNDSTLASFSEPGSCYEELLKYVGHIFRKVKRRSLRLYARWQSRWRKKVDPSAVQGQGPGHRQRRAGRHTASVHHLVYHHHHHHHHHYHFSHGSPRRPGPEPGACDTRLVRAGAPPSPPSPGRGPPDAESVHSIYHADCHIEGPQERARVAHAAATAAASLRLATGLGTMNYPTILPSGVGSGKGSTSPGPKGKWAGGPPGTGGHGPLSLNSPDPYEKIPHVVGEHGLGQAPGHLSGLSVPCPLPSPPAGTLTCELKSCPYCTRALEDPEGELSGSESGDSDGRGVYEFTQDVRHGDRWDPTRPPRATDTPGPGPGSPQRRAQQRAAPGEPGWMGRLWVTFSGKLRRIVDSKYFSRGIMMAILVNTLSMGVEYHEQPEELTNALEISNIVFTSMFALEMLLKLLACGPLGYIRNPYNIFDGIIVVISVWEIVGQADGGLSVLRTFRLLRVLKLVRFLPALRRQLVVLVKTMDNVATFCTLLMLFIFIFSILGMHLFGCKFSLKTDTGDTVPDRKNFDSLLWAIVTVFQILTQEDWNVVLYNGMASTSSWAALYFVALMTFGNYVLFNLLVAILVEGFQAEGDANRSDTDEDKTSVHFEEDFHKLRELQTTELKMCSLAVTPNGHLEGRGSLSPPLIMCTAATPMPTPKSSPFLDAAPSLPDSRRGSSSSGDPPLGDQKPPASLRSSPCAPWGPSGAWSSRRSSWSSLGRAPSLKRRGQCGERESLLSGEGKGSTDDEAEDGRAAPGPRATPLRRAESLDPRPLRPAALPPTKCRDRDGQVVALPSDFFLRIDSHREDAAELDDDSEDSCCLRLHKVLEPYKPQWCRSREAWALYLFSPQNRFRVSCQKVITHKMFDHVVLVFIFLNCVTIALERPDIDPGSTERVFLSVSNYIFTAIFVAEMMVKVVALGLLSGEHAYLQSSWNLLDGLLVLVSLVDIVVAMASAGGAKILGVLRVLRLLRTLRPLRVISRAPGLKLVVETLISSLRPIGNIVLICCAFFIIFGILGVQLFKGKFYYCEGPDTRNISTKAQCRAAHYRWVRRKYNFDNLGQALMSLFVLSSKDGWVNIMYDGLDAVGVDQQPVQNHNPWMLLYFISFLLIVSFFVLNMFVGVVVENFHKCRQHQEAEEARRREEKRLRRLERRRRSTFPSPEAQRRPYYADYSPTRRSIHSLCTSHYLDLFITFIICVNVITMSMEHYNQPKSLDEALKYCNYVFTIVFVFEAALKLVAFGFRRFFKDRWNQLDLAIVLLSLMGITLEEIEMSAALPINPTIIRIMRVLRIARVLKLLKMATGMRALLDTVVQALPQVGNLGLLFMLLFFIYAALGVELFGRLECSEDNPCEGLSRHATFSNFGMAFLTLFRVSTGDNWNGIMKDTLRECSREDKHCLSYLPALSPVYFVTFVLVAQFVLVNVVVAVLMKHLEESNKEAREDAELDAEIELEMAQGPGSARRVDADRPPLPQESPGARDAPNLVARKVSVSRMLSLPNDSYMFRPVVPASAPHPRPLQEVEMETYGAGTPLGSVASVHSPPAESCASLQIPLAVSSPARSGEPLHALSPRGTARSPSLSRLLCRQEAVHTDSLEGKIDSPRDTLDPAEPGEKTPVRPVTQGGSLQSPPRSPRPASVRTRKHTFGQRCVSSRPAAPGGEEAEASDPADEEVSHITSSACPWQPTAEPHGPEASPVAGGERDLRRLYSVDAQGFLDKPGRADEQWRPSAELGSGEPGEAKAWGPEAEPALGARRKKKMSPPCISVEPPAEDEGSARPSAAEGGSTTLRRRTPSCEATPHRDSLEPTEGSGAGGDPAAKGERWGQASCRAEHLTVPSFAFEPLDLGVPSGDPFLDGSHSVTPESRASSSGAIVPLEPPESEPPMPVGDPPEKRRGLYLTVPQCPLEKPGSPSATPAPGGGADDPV

Cc1ccc(NC(=O)COC(=O)c2cc(-c3cccs3)nn2-c2ccccc2)cc1[N+](=O)[O-]
IC50 [1]: > 79.4 µM (inactive)
IC50 [2]: > 79.4 µM (inactive)
IC50 [3]: > 79.4 µM (inactive)

CC1=CC2=NC(=O)/C(=C\c3cc(C)n(-c4ccccc4)c3C)C(=N)N2O1
IC50 [4]: > 64 µM (inactive)

Oc1ccc(C2Oc3cc(O)cc(O)c3CC2O)cc1 (centres undefined)
AC50 (Cytochrome P450 3A4): 12.6 µM (inconclusive)

C=CCn1c(S)nnc1-c1ccc2[nH]c(C)c(C)c2c1
IC50 [4]: > 64 µM (inactive)

Cc1ccc(C(=O)CSc2nnc(COc3cccc(C)c3)o2)cc1
IC50 [5]: > 80 µM (inactive)

Cc1ccc(C)c(CN2C(=O)COc3ccc(C(=O)c4ccccc4C(=O)O)cc32)c1
IC50 [1]: > 79.4 µM (inactive)
IC50 [2]: > 79.4 µM (inactive)
IC50 [3]: > 79.4 µM (inactive)

CN(C)S(=O)(=O)N1CCN(S(=O)(=O)c2ccc3ccccc3c2)CC1
IC50 [1]: > 79.4 µM (inactive)
IC50 [2]: > 79.4 µM (inactive)
IC50 [3]: > 79.4 µM (inactive)

CC(=O)N1CCN(c2ccccc2NC(=O)c2ccc3ccccc3c2)CC1
EC50 [6]: 1.5 µM (active)

CCC(CC)c1nnc(NC(=O)C2COc3ccccc3O2)s1 (centres undefined)
EC50 [7]: 3.85 µM (active)

Cc1ccc(S(=O)(=O)Nc2c(C)n(C)n(-c3ccccc3)c2=O)cc1C(=O)NCc1ccccn1
IC50 [4]: > 64 µM (inactive)

Cc1cc([N+](=O)[O-])ccc1NC(=O)Nc1ccc(F)cc1F
CC50 [8]: > 20 µM (active)
EC50 [9]: > 60 µM (not active)
AC50 [10]: 30.1 µM (active)
CC50 [11]: > 20 µM (active)
EC50 [12]: 4.36 µM (active)
AC50 [13]: 19.6 µM (active)
AC50 [14]: 18.8 µM (active)
IC50 (cells): 46.7 µM (active)
AC50 [15]: 22.8 µM (active)
AC50 [16]: 30.9 µM (active)
CC50 [17]: 20.3 µM (active)

CCOC(=O)C1(CCOc2ccccc2)CCN(Cc2cccn2-c2ncccn2)CC1
EC50 [6]: 1.88 µM (active)

c1ccc(-c2nc(NCc3ccco3)c3ccccc3n2)cc1
EC50 [6]: 3.76 µM (active)
